# According to ChEMBL document CHEMBL1201862, “PubChem BioAssay data set” (2004):
#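 Compound exposure: 48 hours, 5 concentrations, 96-well plates. At the GI50, growth is halved.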 Activity calls are given as the source filed them. No stated cut-off is given here; in the data, active = GI50 up to about 1.1 µM and inactive = higher. Where a SMILES comes first, the peptide text is derived from it. The star is where a group is joined. Boc = CC(C)(C)OC(=O)*
# Experiments:
# Assay in all cases: inhibition of tumour cell growth, NCI panel, 48 h
# SK-MEL-5 = system: SK-MEL-5
# SF-539 = system: SF-539
# SNB-19 = system: SNB-19
# U-251 = system: U-251
# NCI/ADR-RES = system: NCI/ADR-RES
# COLO 205 = system: COLO 205
# IGROV-1 = system: IGROV-1
# UACC-257 = system: UACC-257
# CAKI-1 = system: CAKI-1
# NCI-H226 = system: NCI-H226
# KM12 = system: KM12
# BT-549 = system: BT-549
# OVCAR-4 = system: OVCAR-4
# OVCAR-3 = system: OVCAR-3
# HOP-92 = system: HOP-92
# UO-31 = system: UO-31
# EKVX = system: EKVX
# LOX IMVI = system: LOX IMVI
# Hs-578T = system: Hs-578T
# Malme-3M = system: Malme-3M
SMILES,GI50 (SK-MEL-5),GI50 (SF-539),GI50 (SNB-19),GI50 (U-251),GI50 (NCI/ADR-RES),GI50 (COLO 205),GI50 (IGROV-1),GI50 (UACC-257),GI50 (CAKI-1),GI50 (NCI-H226),GI50 (KM12),GI50 (BT-549),GI50 (OVCAR-4),GI50 (OVCAR-3),GI50 (HOP-92),GI50 (UO-31),GI50 (EKVX),GI50 (LOX IMVI),GI50 (Hs-578T),GI50 (Malme-3M)
CC1=CCC[C@H]2[C@](C)(CC3=CC(=O)C(SCC(C)C)=CC3=O)[C@@H](C)CC[C@]12C,12.8 µM (inactive),18 µM (inactive),18.3 µM (inactive),14.3 µM (inactive),16 µM (inactive),13.2 µM (inactive),11 µM (inactive),17.3 µM (inactive),11.3 µM (inactive),11.8 µM (inactive),11.2 µM (inactive),17.6 µM (inactive),15.3 µM (inactive),17.4 µM (inactive),4.84 µM (inactive),11.7 µM (inactive),16.7 µM (inactive),7.41 µM (inactive),,
COc1cc2c(cc1-c1coc3cc(OCC=C(C)C)ccc3c1=O)OCO2,16.8 µM (inactive),36.2 µM (inactive),27.4 µM (inactive),35.2 µM (inactive),,29.4 µM (inactive),30.8 µM (inactive),33.3 µM (inactive),19.8 µM (inactive),,13.8 µM (inactive),16.8 µM (inactive),13.5 µM (inactive),61.2 µM (inactive),37.3 µM (inactive),31 µM (inactive),24.3 µM (inactive),19.3 µM (inactive),28.8 µM (inactive),
CC/C(C)=C1\OC(=O)C(C)C(O)C(Cc2cccnc2)NC(=O)C(NC(=O)c2ncccc2O)C(C)OC1=O (centres undefined),> 100 µM (inactive),> 100 µM (inactive),> 100 µM (inactive),> 100 µM (inactive),,> 100 µM (inactive),27.1 µM (inactive),> 100 µM (inactive),> 100 µM (inactive),,42 µM (inactive),> 100 µM (inactive),> 100 µM (inactive),> 100 µM (inactive),,,31.3 µM (inactive),> 100 µM (inactive),29.7 µM (inactive),39.5 µM (inactive)
O=C(Nc1nc2ccc([N+](=O)[O-])cc2s1)c1cc([N+](=O)[O-])ccc1Cl,1.41 µM (inactive),2.68 µM (inactive),,2.95 µM (inactive),1.91 µM (inactive),1.68 µM (inactive),,3.23 µM (inactive),4.51 µM (inactive),1.31 µM (inactive),3.4 µM (inactive),2.24 µM (inactive),5.27 µM (inactive),1.59 µM (inactive),0.675 µM (active),,2.81 µM (inactive),2.05 µM (inactive),,3.01 µM (inactive)
c1ccc(-c2nc3ccccc3n3nnnc23)cc1,> 100 µM (inactive),> 100 µM (inactive),75.7 µM (inactive),> 100 µM (inactive),> 100 µM (inactive),> 100 µM (inactive),> 100 µM (inactive),> 100 µM (inactive),,> 100 µM (inactive),> 100 µM (inactive),> 100 µM (inactive),> 100 µM (inactive),> 100 µM (inactive),> 100 µM (inactive),0.424 µM (active),11.5 µM (inactive),> 100 µM (inactive),,> 100 µM (inactive)
COc1cc(Br)cc2c1O[C@H]1C(=O)CC3CC21CCN3C (some centres undefined),> 100 µM (inactive),> 100 µM (inactive),> 100 µM (inactive),,67.5 µM (inactive),43.3 µM (inactive),30.8 µM (inactive),35.8 µM (inactive),74.1 µM (inactive),,72.3 µM (inactive),48.4 µM (inactive),,> 100 µM (inactive),,34.9 µM (inactive),61 µM (inactive),32.9 µM (inactive),44.7 µM (inactive),> 100 µM (inactive)
O=C(Cn1cc(-c2ccccc2)nn1)NC1CCCC1,> 100 µM (inactive),> 100 µM (inactive),> 100 µM (inactive),> 100 µM (inactive),> 100 µM (inactive),> 100 µM (inactive),> 100 µM (inactive),> 100 µM (inactive),> 100 µM (inactive),> 100 µM (inactive),> 100 µM (inactive),> 100 µM (inactive),> 100 µM (inactive),,> 100 µM (inactive),,> 100 µM (inactive),> 100 µM (inactive),,> 100 µM (inactive)
CC(=O)NC1(c2cc3ccccc3s2)CCCCCC1,27.1 µM (inactive),51.5 µM (inactive),74.5 µM (inactive),40.8 µM (inactive),38.3 µM (inactive),22 µM (inactive),66.4 µM (inactive),40 µM (inactive),52.6 µM (inactive),42.3 µM (inactive),41.8 µM (inactive),58.9 µM (inactive),38.5 µM (inactive),21.6 µM (inactive),59.3 µM (inactive),37.2 µM (inactive),19.1 µM (inactive),47.9 µM (inactive),,
CC(C)(SCc1ccccc1)C(N)C(=O)O (centres undefined),> 100 µM (inactive),,> 100 µM (inactive),> 100 µM (inactive),> 100 µM (inactive),,> 100 µM (inactive),> 100 µM (inactive),> 100 µM (inactive),> 100 µM (inactive),> 100 µM (inactive),> 100 µM (inactive),> 100 µM (inactive),> 100 µM (inactive),> 100 µM (inactive),> 100 µM (inactive),> 100 µM (inactive),> 100 µM (inactive),,> 100 µM (inactive)
O=C(NN1C(=O)CSC1c1ccco1)c1ccncc1 (centres undefined),> 100 µM (inactive),> 100 µM (inactive),> 100 µM (inactive),> 100 µM (inactive),> 100 µM (inactive),> 100 µM (inactive),> 100 µM (inactive),> 100 µM (inactive),> 100 µM (inactive),> 100 µM (inactive),> 100 µM (inactive),> 100 µM (inactive),> 100 µM (inactive),> 100 µM (inactive),> 100 µM (inactive),> 100 µM (inactive),> 100 µM (inactive),,,> 100 µM (inactive)
C[C@@H]1C(=O)C[C@H]2C(C)(C)CCC[C@]2(C)[C@@]1(O)CCc1ccoc1,> 100 µM (inactive),> 100 µM (inactive),> 100 µM (inactive),> 100 µM (inactive),,> 100 µM (inactive),57.4 µM (inactive),> 100 µM (inactive),> 100 µM (inactive),13.4 µM (inactive),> 100 µM (inactive),> 100 µM (inactive),> 100 µM (inactive),> 100 µM (inactive),> 100 µM (inactive),55.1 µM (inactive),> 100 µM (inactive),> 100 µM (inactive),89.5 µM (inactive),> 100 µM (inactive)
CC(=O)[C@]1(O)Cc2c(O)c3c(c(O)c2[C@@H](OC2CC(N)C(O)C(C)O2)C1)C(=O)c1c(OCc2ccccc2)cccc1C3=O (some centres undefined),1.71 µM (inactive),1.46 µM (inactive),1.5 µM (inactive),1.07 µM (active),,1.16 µM (inactive),7.98 µM (inactive),4.06 µM (inactive),1.64 µM (inactive),1.09 µM (active),1.41 µM (inactive),3.76 µM (inactive),2.43 µM (inactive),2.06 µM (inactive),3.18 µM (inactive),2.28 µM (inactive),3.05 µM (inactive),0.604 µM (active),0.619 µM (active),3.33 µM (inactive)
Cc1ccc(Oc2cc(C)ccc2P(=O)(O)O)cc1,> 100 µM (inactive),> 100 µM (inactive),> 100 µM (inactive),,,> 100 µM (inactive),> 100 µM (inactive),> 100 µM (inactive),> 100 µM (inactive),> 100 µM (inactive),> 100 µM (inactive),> 100 µM (inactive),,> 100 µM (inactive),> 100 µM (inactive),> 100 µM (inactive),> 100 µM (inactive),> 100 µM (inactive),> 100 µM (inactive),
CC(Oc1ccc(Oc2cnc3ccc(Cl)cc3n2)cc1)C(=O)O (centres undefined),72.3 µM (inactive),> 65.2 µM (inactive),> 62.1 µM (inactive),> 63.7 µM (inactive),> 95.3 µM (inactive),55.7 µM (inactive),> 64.1 µM (inactive),> 86.3 µM (inactive),64.1 µM (inactive),,> 84.5 µM (inactive),> 73.1 µM (inactive),> 92.5 µM (inactive),> 84.5 µM (inactive),,72.1 µM (inactive),> 99.8 µM (inactive),51.6 µM (inactive),> 62.2 µM (inactive),> 45 µM (inactive)
N#C[BH2-][n+]1ccc(C(=O)NNC(c2ccccc2)C(F)(F)F)cc1 (centres undefined),> 100 µM (inactive),> 100 µM (inactive),> 100 µM (inactive),> 100 µM (inactive),> 100 µM (inactive),> 100 µM (inactive),> 100 µM (inactive),> 100 µM (inactive),> 100 µM (inactive),> 100 µM (inactive),> 100 µM (inactive),> 100 µM (inactive),> 100 µM (inactive),,1 µM (active),,> 100 µM (inactive),> 100 µM (inactive),,> 100 µM (inactive)
COC(=O)C(Cc1c[nH]c2ccccc12)NC(=O)C(Cc1c[nH]c2ccccc12)NC(=O)C(Cc1c[nH]c2ccccc12)NC(=O)OC(C)(C)C (stereo not drawn) (Boc-Trp-Trp-Trp-OMe; configuration not given here),47.9 µM (inactive),,18.9 µM (inactive),18.5 µM (inactive),,20.4 µM (inactive),18.7 µM (inactive),32.7 µM (inactive),,16.5 µM (inactive),21.5 µM (inactive),18.1 µM (inactive),,,13.2 µM (inactive),24.3 µM (inactive),57 µM (inactive),,17.7 µM (inactive),> 100 µM (inactive)
